Values quoted from earlier work, collected in PMC9516332 (Frontiers in Oncology, 2022).
Where two headings read alike, the source gives them in different places.

Assays:
Conditions in all cases: cited from earlier work
[1] = target: panel of 255 wild-type kinases (Homo sapiens, UniProt P05129)
[2] = target: panel of 255 wild-type kinases (Homo sapiens, UniProt P07333)
[3] = target: panel of 255 wild-type kinases (Homo sapiens, UniProt P11362)
[4] = target: panel of 255 wild-type kinases (Homo sapiens, UniProt P48730)
[5] = target: panel of 255 wild-type kinases (Homo sapiens, UniProt P51617)
[6] = target: panel of 255 wild-type kinases (Homo sapiens, UniProt Q9BYP7)
[7] = target: T1, panel of 255 wild-type kinases (Homo sapiens, UniProt Q9UL54)
T1 sequence (Q9UL54 1-1235): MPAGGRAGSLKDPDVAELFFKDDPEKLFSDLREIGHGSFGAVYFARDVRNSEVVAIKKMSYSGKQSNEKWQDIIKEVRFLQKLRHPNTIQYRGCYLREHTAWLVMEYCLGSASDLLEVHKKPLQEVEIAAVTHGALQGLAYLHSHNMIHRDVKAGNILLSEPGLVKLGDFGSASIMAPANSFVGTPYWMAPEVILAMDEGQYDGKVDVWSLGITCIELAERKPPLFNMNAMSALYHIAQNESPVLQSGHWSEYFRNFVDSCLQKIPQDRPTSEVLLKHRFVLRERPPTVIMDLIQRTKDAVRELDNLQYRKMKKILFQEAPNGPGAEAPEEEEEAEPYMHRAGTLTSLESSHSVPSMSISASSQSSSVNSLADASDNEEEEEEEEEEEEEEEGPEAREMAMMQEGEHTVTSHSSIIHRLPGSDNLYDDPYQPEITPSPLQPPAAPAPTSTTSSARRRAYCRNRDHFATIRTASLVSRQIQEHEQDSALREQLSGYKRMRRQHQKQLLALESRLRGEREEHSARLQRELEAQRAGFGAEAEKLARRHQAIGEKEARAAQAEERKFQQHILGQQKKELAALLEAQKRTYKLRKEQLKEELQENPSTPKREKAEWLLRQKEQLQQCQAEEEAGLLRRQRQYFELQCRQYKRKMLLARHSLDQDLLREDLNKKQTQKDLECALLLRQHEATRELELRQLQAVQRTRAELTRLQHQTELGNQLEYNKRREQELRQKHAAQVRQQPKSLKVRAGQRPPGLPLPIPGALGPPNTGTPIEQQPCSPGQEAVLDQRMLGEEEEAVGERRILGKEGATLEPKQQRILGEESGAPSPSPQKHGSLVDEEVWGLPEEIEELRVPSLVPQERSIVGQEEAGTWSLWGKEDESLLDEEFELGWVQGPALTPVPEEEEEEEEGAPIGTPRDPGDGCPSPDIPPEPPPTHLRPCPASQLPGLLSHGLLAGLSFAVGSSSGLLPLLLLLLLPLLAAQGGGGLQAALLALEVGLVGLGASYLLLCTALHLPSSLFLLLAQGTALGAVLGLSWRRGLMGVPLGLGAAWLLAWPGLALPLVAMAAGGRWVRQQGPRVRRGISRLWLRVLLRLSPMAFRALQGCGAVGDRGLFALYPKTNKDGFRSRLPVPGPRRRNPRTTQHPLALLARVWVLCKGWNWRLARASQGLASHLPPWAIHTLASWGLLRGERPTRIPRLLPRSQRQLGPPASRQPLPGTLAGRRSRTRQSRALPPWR

[8] = kinase PKCγ, 1 µmol/L single concentration, ref DOI: 10.1158/1535-7163.MCT-18-0877
[9] = kinase FMS, 1 µmol/L single concentration, ref DOI: 10.1158/1535-7163.MCT-18-0877
[10] = kinase FGFR1, 1 µmol/L single concentration, ref DOI: 10.1158/1535-7163.MCT-18-0877
[11] = kinase CK1δ, 1 µmol/L single concentration, ref DOI: 10.1158/1535-7163.MCT-18-0877
[12] = kinase IRAK1, 1 µmol/L single concentration, ref DOI: 10.1158/1535-7163.MCT-18-0877
[13] = kinase WNK3, 1 µmol/L single concentration, ref DOI: 10.1158/1535-7163.MCT-18-0877
[14] = kinase TAOK2, 1 µmol/L single concentration, ref DOI: 10.1158/1535-7163.MCT-18-0877
[15] = kinase PKCγ, 1 µmol/L single concentration, ref DOI: 10.1371/journal.pone.0092146
[16] = kinase FMS, 1 µmol/L single concentration, ref DOI: 10.1371/journal.pone.0092146
[17] = kinase FGFR1, 1 µmol/L single concentration, ref DOI: 10.1371/journal.pone.0092146
[18] = kinase CK1δ, 1 µmol/L single concentration, ref DOI: 10.1371/journal.pone.0092146
[19] = kinase IRAK1, 1 µmol/L single concentration, ref DOI: 10.1371/journal.pone.0092146
[20] = kinase WNK3, 1 µmol/L single concentration, ref DOI: 10.1371/journal.pone.0092146
[21] = kinase TAOK2, 1 µmol/L single concentration, ref DOI: 10.1371/journal.pone.0092146

Row | SMILES | %-inhibition at 1 µmol/L, PKCγ [1, 8] [%] | %-inhibition at 1 µmol/L, FMS [2, 9] [%] | %-inhibition at 1 µmol/L, FGFR1 [3, 10] [%] | %-inhibition at 1 µmol/L, CK1δ [4, 11] [%] | %-inhibition at 1 µmol/L, IRAK1 [5, 12] [%] | %-inhibition at 1 µmol/L, WNK3 [6, 13] [%] | %-inhibition at 1 µmol/L, TAOK2 [7, 14] [%] | %-inhibition at 1 µmol/L, PKCγ [1, 15] [%] | %-inhibition at 1 µmol/L, FMS [2, 16] [%] | %-inhibition at 1 µmol/L, FGFR1 [3, 17] [%] | %-inhibition at 1 µmol/L, CK1δ [4, 18] [%] | %-inhibition at 1 µmol/L, IRAK1 [5, 19] [%] | %-inhibition at 1 µmol/L, WNK3 [6, 20] [%] | %-inhibition at 1 µmol/L, TAOK2 [7, 21] [%] | other results
1 | O=C(c1ccc(F)c(F)c1Nc1ccc(I)cc1F)N1CC(O)([C@@H]2CCCCN2)C1 [cobimetinib] | -1.52 | 5 | -1.33 | -2.63 | 0.65 | 1.84 | 5.42 | – | – | – | – | – | – | – | –
2 | CC(C)(C)c1nc(-c2cccc(NS(=O)(=O)c3c(F)cccc3F)c2F)c(-c2ccnc(N)n2)s1 [dabrafenib] | – | – | – | – | – | – | – | -0.381 | 15 | 10 | 8.51 | -48 | 1.34 | 34 | –
3 | Cc1cc(Nc2ncc(Cl)c(Nc3ccccc3S(=O)(=O)C(C)C)n2)c(OC(C)C)cc1C1CCNCC1 [ceritinib] | -1.46 | 55 | 11 | -6 | 9 | 0.598 | 7 | – | – | – | – | – | – | – | –
4 | CCc1cc2c(cc1N1CCC(N3CCOCC3)CC1)C(C)(C)c1[nH]c3cc(C#N)ccc3c1C2=O [alectinib] | 0.135 | 19 | 5.37 | -5.53 | 92 | 0.437 | 5.52 | – | – | – | – | – | – | – | –
5 | CCCS(=O)(=O)Nc1ccc(F)c(C(=O)c2c[nH]c3ncc(-c4ccc(Cl)cc4)cc23)c1F [vemurafenib] | – | – | – | – | – | – | – | -4.39 | 6 | 21 | -3 | 10 | 53 | 5.35 | –
6 | COc1cc(N2CCC(N3CCN(C)CC3)CC2)ccc1Nc1ncc(Cl)c(Nc2ccccc2P(C)(C)=O)n1 [brigatinib] | – | – | – | – | – | – | – | – | – | – | – | – | – | – | %-inhibition at 1 µmol/L, PKCγ [1]: 11%; %-inhibition at 1 µmol/L, FMS [2]: 100%; %-inhibition at 1 µmol/L, FGFR1 [3]: 95%; %-inhibition at 1 µmol/L, CK1δ [4]: -3.62%; %-inhibition at 1 µmol/L, IRAK1 [5]: 69%; %-inhibition at 1 µmol/L, WNK3 [6]: 1%; %-inhibition at 1 µmol/L, TAOK2 [7]: 16%
7 | CC(=O)Nc1cccc(-n2c(=O)n(C3CC3)c(=O)c3c(Nc4ccc(I)cc4F)n(C)c(=O)c(C)c32)c1 [trametinib] | – | – | – | – | – | – | – | 0.381 | -4 | -1.45 | 0.365 | 6 | 1 | -2.59 | –
8 | CC#CC(=O)N1CCC[C@H]1c1nc(-c2ccc(C(=O)Nc3ccccn3)cc2)c2c(N)nccn12 [acalabrutinib] | -7.43 | 8 | -2.28 | 2.76 | -7 | -0.259 | 5.31 | – | – | – | – | – | – | – | –
9 | C=CC(=O)Nc1cc(Nc2nccc(-c3cn(C)c4ccccc34)n2)c(OC)cc1N(C)CCN(C)C [osimertinib] | 14 | 47 | 3.51 | 7.49 | 7 | 1.5 | 7 | – | – | – | – | – | – | – | –
10 | CO[C@@H]1[C@H](N(C)C(=O)c2ccccc2)C[C@H]2O[C@]1(C)n1c3ccccc3c3c4c(c5c6ccccc6n2c5c31)C(=O)NC4 [midostaurin] | 91 | 95 | 93 | – | 10 | 5.27 | 9 | – | – | – | – | – | – | – | %-inhibition at 1 µmol/L, CK1δ [4]: -2%
11 | C=CC(=O)N1CCC[C@@H](n2nc(-c3ccc(Oc4ccccc4)cc3)c3c(N)ncnc32)C1 [ibrutinib] | 0.797 | 19 | 71 | 7.46 | -11 | 7 | 5 | – | – | – | – | – | – | – | –
12 | C[C@@H](Oc1cc(-c2cnn(C3CCNCC3)c2)cnc1N)c1c(Cl)ccc(F)c1Cl [crizotinib] | – | – | – | – | – | – | – | -0.662 | 92 | 17 | 9 | 92 | -8 | 33 | –
